Test results reported in PMC11219871, “Epigenetic-based differentiation therapy for Acute Myeloid Leukemia” (Nature Communications, 2024).

Experiments:
[1] = system: HL-60; experiment: Differentiation-apoptosis assay, CD11b / annexin-V / Sytox Green / myeloid markers flow cytometry; type: cell-based, human; settings: HL-60, daily 25% GI50, 48 h; for Annexin V + (%) / CD11b+ (%): mean of three
Description: Next, the cells were washed twice with phosphate-buffered saline (PBS) and resuspended in 1X Binding Buffer at a concentration of 1 × 10^6 cells/mL. […] Finally, after the addition of 400 µL of 1X Binding Buffer to each tube, samples were collected on a BD FACSCanto flow cytometer (Becton Dickinson, San Jose, CA, USA) and analyzed using FlowJo software.
Then, 1 million cells (volume of 250 µL) were added and incubated for 30 min at room temperature in darkness. After 10 min incubation at room temperature with 2 mL of FACSLysing 1X, cells were centrifuged at 540 g for 5 min and washed twice with FACSBuffer. Finally, after centrifugation at 540 g for 5 min cells were resuspended in FACSBuffer.

[2] = molecular target: T1, HDAC6 (Homo sapiens, UniProt Q9UBN7); experiment: HDAC enzymatic assay, fluorescence-labeled substrate; type: biochemical; settings: read-out: HDAC6 IC50
T1 sequence (Q9UBN7 1-1215): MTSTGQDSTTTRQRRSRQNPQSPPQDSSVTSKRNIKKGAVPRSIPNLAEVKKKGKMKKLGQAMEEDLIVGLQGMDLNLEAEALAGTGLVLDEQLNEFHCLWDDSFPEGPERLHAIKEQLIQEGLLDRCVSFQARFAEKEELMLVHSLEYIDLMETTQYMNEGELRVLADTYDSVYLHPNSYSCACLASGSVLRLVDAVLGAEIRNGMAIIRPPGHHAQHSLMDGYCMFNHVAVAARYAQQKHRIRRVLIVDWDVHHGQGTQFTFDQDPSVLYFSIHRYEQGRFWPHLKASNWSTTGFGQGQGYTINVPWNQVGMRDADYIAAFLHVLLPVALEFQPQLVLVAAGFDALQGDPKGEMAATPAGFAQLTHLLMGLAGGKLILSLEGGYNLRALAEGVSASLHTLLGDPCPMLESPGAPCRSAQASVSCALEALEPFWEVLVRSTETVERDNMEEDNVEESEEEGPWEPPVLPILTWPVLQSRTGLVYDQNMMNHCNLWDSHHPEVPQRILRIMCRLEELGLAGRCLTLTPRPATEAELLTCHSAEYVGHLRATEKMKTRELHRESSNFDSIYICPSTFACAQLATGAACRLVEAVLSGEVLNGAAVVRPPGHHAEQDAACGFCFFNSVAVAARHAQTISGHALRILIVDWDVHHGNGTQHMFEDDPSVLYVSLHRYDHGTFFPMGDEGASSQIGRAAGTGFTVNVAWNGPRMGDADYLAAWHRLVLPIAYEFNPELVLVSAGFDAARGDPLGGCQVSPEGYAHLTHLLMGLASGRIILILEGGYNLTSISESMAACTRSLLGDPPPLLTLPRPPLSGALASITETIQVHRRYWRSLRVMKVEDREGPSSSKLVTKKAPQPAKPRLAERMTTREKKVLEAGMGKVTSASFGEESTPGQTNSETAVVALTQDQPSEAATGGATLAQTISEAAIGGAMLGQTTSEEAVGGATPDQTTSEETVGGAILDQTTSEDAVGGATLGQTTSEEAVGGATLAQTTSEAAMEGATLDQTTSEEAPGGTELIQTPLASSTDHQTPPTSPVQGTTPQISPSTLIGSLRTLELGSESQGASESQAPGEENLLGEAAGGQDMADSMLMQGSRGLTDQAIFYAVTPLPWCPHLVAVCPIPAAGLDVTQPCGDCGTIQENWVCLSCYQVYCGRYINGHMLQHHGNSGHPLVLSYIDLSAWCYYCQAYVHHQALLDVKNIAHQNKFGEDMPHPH

[3] = molecular target: HDAC1 (Homo sapiens, UniProt Q13547); experiment: as above; type: biochemical; settings: read-out: HDAC1 IC50
HDAC1, sequence (Q13547 whole entry): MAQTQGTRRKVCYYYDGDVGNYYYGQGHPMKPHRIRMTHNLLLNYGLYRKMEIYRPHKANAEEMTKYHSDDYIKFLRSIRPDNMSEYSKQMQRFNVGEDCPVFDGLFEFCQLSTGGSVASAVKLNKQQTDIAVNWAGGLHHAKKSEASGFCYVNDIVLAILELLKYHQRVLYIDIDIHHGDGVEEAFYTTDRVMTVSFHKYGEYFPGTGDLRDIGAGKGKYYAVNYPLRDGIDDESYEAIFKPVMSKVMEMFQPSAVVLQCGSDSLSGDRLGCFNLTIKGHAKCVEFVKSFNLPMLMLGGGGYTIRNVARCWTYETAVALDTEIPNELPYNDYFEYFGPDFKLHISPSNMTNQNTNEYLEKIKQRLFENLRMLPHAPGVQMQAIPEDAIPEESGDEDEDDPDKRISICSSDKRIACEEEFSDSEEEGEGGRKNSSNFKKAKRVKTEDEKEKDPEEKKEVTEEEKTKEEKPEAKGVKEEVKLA

[4] = system: HL-60; experiment: Cell proliferation assay: GI50; type: cell-based, human; settings: 48 h; read-out: HL-60 GI50
Description: Cell proliferation was analyzed using the CellTiter 96 Aqueous One Solution Cell Proliferation Assay (Promega, Madison, WI). This is a colorimetric method for determining the number of viable cells in proliferation. For the assay, suspension cells were cultured in triplicate at a density of 1 × 10^6 cells/mL in 96-well plates (100.000 cells/well, 100 µL/well), using only the 60 inner wells to avoid any border effects. […] Then, the cells were incubated with 100 μL/well of medium and 20 μL/well of CellTiter 96 Aqueous One Solution reagent for 1–3 h. […] The background absorbance was measured in wells with only cell line medium and solution reagent. First, the average of the absorbance from the control wells was subtracted from all other absorbance values. Data were calculated as the percentage of total absorbance of treated cells/absorbance of non-treated cells. The GI50 values of the different compounds were determined using non-linear regression plots made with GraphPad Prism v5 software.

Compound | Annexin V (%) Replicate 1 [1] [%] | Annexin V (%) Replicate 2 [1] [%] | Annexin V (%) Replicate 3 [1] [%] | CD11b (%) Replicate 1 [1] [%] | CD11b (%) Replicate 2 [1] [%] | CD11b (%) Replicate 3 [1] [%] | Annexin V + (%) [1] [%] | CD11b+ (%) [1] [%] | IC50 [2] [µM] | IC50 [3] [µM] | GI50 [4] [µM]
COc1cc2c(NC3CCN(C)CC3)cc(-c3ccc(C)o3)nc2cc1OCCCN1CCCC1 [CM-272] | 1.02 | 1.64 | 1.88 | 1.50 | 0.87 | 0.44 | 1.51 | 0.94 | > 20 | > 20 | 2.9
COc1cc2c(NCC3CCN(C)CC3)cc(-c3ccc(C)o3)nc2cc1OCCCN1CCCC1 [CM-579] | 0.00 | 0.00 | 0.00 | 0.00 | 0.00 | 0.00 | 0.00 | 0.00 | > 20 | > 20 | > 10
